Experiment: Evaluation of conversion rate to active form in buffer solution (Experimental Example 1)
Type: physicochemical
Conditions: for Production rate of Alvocidib / Residual rate: 37° C., 25 umol/L in buffer solution; for Stability in buffer solution at pH 5: pH 5, 37° C., up to 2 or 3 hours; for Conversion to Alvocidib at pH 7.4: pH 7.4, 37° C., up to 3 hours
Outline: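 Stability across pH: 25 umol/L, 37° C, 50 mM citrate/phosphate, pH 5.0–7.4. Sampling at 0, 0.5, 1, 2, 3 h; HPLC determined loss of compound and Alvocidib generated.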

For `CCN(C[C@H]1CCCCN1)C(=O)Oc1cc(O)c2c(=O)cc(-c3ccccc3Cl)oc2c1[C@H]1CCN(C)C[C@H]1O` [Example 2, 2-(2-chlorophenyl)-5-hydroxy-8-[(3S,4R)-3-hydroxy-1-methylpiperidin-4-yl]-4-oxo-4H-1-benzopyran-7-yl ethyl{[(2R)-piperidin-2-yl]methyl}carbamate], the “Production rate of Alvocidib” value (pH5.0, 0 hr) was 0.0%, the Residual rate (pH5.0, 0 hr) was 95.5% and the “Stability in buffer solution at pH 5” value was “stable”. The “Production rate of Alvocidib” value (pH5.0, 0.5 hr) was 0.3%, the Residual rate (pH5.0, 0.5 hr) was 95.4% and the “Production rate of Alvocidib” value (pH5.0, 1 hr) was 0.5%. The Residual rate (pH5.0, 1 hr) was 95.1%, the “Production rate of Alvocidib” value (pH5.0, 2 hr) was 1.1% and the Residual rate (pH5.0, 2 hr) was 94.7%. The “Production rate of Alvocidib” value (pH5.0, 3 hr) was 1.6%, the Residual rate (pH5.0, 3 hr) was 94.1% and the “Production rate of Alvocidib” value (pH5.5, 0 hr) was 0.0%. The Residual rate (pH5.5, 0 hr) was 95.8%, the “Production rate of Alvocidib” value (pH5.5, 0.5 hr) was 0.8% and the Residual rate (pH5.5, 0.5 hr) was 95.1%. For the same compound, the “Production rate of Alvocidib” value (pH5.5, 1 hr) was 1.7%, the Residual rate (pH5.5, 1 hr) was 94.3% and the “Production rate of Alvocidib” value (pH5.5, 2 hr) was 3.2%. For the same compound, the Residual rate (pH5.5, 2 hr) was 92.5%, the “Production rate of Alvocidib” value (pH5.5, 3 hr) was 5.3% and the Residual rate (pH5.5, 3 hr) was 90.4%. The “Production rate of Alvocidib” value (pH6.0, 0 hr) was 0.0%, the Residual rate (pH6.0, 0 hr) was 95.5% and the “Production rate of Alvocidib” value (pH6.0, 0.5 hr) was 2.9%. For the same compound, the Residual rate (pH6.0, 0.5 hr) was 93.0%, the “Production rate of Alvocidib” value (pH6.0, 1 hr) was 5.7% and the Residual rate (pH6.0, 1 hr) was 89.6%. The “Production rate of Alvocidib” value (pH6.0, 2 hr) was 11.1%, the Residual rate (pH6.0, 2 hr) was 81.0% and the “Production rate of Alvocidib” value (pH6.0, 3 hr) was 15.7%. For the same compound, the Residual rate (pH6.0, 3 hr) was 74.5%, the “Production rate of Alvocidib” value (pH6.5, 0 hr) was 0.0% and the Residual rate (pH6.5, 0 hr) was 95.9%. For the same compound, the “Production rate of Alvocidib” value (pH6.5, 0.5 hr) was 7.9%, the Residual rate (pH6.5, 0.5 hr) was 87.4% and the “Production rate of Alvocidib” value (pH6.5, 1 hr) was 15.1%. For the same compound, the Residual rate (pH6.5, 1 hr) was 75.4%, the “Production rate of Alvocidib” value (pH6.5, 2 hr) was 27.2% and the Residual rate (pH6.5, 2 hr) was 57.4%. The “Production rate of Alvocidib” value (pH6.5, 3 hr) was 36.1%, the Residual rate (pH6.5, 3 hr) was 45.1% and the “Production rate of Alvocidib” value (pH7.0, 0 hr) was 0.0%. For the same compound, the Residual rate (pH7.0, 0 hr) was 95.4%, the “Production rate of Alvocidib” value (pH7.0, 0.5 hr) was 21.0% and the Residual rate (pH7.0, 0.5 hr) was 66.7%. For the same compound, the “Production rate of Alvocidib” value (pH7.0, 1 hr) was 38.0%, the Residual rate (pH7.0, 1 hr) was 44.8% and the “Production rate of Alvocidib” value (pH7.0, 2 hr) was 53.4%. For the same compound, the Residual rate (pH7.0, 2 hr) was 19.9%, the “Production rate of Alvocidib” value (pH7.0, 3 hr) was 60.8% and the Residual rate (pH7.0, 3 hr) was 9.8%. For the same compound, the “Production rate of Alvocidib” value (pH7.4, 0 hr) was 0.2%, the Residual rate (pH7.4, 0 hr) was 95.4% and the “Conversion to Alvocidib at pH 7.4” value was “rapidly converted to Alvocidib”. The “Production rate of Alvocidib” value (pH7.4, 0.5 hr) was 38.7%, the Residual rate (pH7.4, 0.5 hr) was 41.7% and the “Production rate of Alvocidib” value (pH7.4, 1 hr) was 56.4%. For the same compound, the Residual rate (pH7.4, 1 hr) was 17.1%, the “Production rate of Alvocidib” value (pH7.4, 2 hr) was 66.0% and the Residual rate (pH7.4, 2 hr) was 3.5%. The “Production rate of Alvocidib” value (pH7.4, 3 hr) was 67.6% and the Residual rate (pH7.4, 3 hr) was 1.5%.
With `COCCN(CC1CCCCN1)C(=O)Oc1cc(O)c2c(=O)cc(-c3ccccc3Cl)oc2c1[C@H]1CCN(C)C[C@H]1O` (stereo partly drawn) [Example 12, 2-(2-chlorophenyl)-5-hydroxy-8-[(3S,4R)-3-hydroxy-1-methylpiperidin-4-yl]-4-oxo-4H-1-benzopyran-7-yl (2-methoxyethyl) [(piperidin-2-yl)methyl]carbamate] the “Production rate of Alvocidib” value (pH5.0, 0 hr) was 0.5%, the Residual rate (pH5.0, 0 hr) was 80.7% and the “Stability in buffer solution at pH 5” value was “stable”. For the same compound, the “Production rate of Alvocidib” value (pH5.0, 0.5 hr) was 1.1%, the Residual rate (pH5.0, 0.5 hr) was 80.3% and the “Production rate of Alvocidib” value (pH5.0, 1 hr) was 1.5%. For the same compound, the Residual rate (pH5.0, 1 hr) was 79.6%, the “Production rate of Alvocidib” value (pH5.0, 2 hr) was 2.3% and the Residual rate (pH5.0, 2 hr) was 79.6%. The “Production rate of Alvocidib” value (pH5.0, 3 hr) was 3.9%, the Residual rate (pH5.0, 3 hr) was 77.3% and the “Production rate of Alvocidib” value (pH5.5, 0 hr) was 0.5%. For the same compound, the Residual rate (pH5.5, 0 hr) was 80.6%, the “Production rate of Alvocidib” value (pH5.5, 0.5 hr) was 1.9% and the Residual rate (pH5.5, 0.5 hr) was 79.9%. For the same compound, the “Production rate of Alvocidib” value (pH5.5, 1 hr) was 3.8%, the Residual rate (pH5.5, 1 hr) was 77.5% and the “Production rate of Alvocidib” value (pH5.5, 2 hr) was 6.9%. The Residual rate (pH5.5, 2 hr) was 73.8%, the “Production rate of Alvocidib” value (pH5.5, 3 hr) was 9.8% and the Residual rate (pH5.5, 3 hr) was 71.2%. For the same compound, the “Production rate of Alvocidib” value (pH6.0, 0 hr) was 0.6%, the Residual rate (pH6.0, 0 hr) was 80.8% and the “Production rate of Alvocidib” value (pH6.0, 0.5 hr) was 6.2%. The Residual rate (pH6.0, 0.5 hr) was 75.4%, the “Production rate of Alvocidib” value (pH6.0, 1 hr) was 11.0% and the Residual rate (pH6.0, 1 hr) was 70.3%. For the same compound, the “Production rate of Alvocidib” value (pH6.0, 2 hr) was 22.5%, the Residual rate (pH6.0, 2 hr) was 56.2% and the “Production rate of Alvocidib” value (pH6.0, 3 hr) was 26.9%. For the same compound, the Residual rate (pH6.0, 3 hr) was 54.0%, the “Production rate of Alvocidib” value (pH6.5, 0 hr) was 1.0% and the Residual rate (pH6.5, 0 hr) was 80.4%. For the same compound, the “Production rate of Alvocidib” value (pH6.5, 0.5 hr) was 16.6%, the Residual rate (pH6.5, 0.5 hr) was 63.8% and the “Production rate of Alvocidib” value (pH6.5, 1 hr) was 31.8%. For the same compound, the Residual rate (pH6.5, 1 hr) was 39.4%, the “Production rate of Alvocidib” value (pH6.5, 2 hr) was 40.5% and the Residual rate (pH6.5, 2 hr) was 26.2%. The “Production rate of Alvocidib” value (pH6.5, 3 hr) was 52.2%, the Residual rate (pH6.5, 3 hr) was 13.4% and the “Production rate of Alvocidib” value (pH7.0, 0 hr) was 1.7%. The Residual rate (pH7.0, 0 hr) was 80.2%, the “Production rate of Alvocidib” value (pH7.0, 0.5 hr) was 33.8% and the Residual rate (pH7.0, 0.5 hr) was 35.8%. For the same compound, the “Production rate of Alvocidib” value (pH7.0, 1 hr) was 51.2%, the Residual rate (pH7.0, 1 hr) was 15.4% and the “Production rate of Alvocidib” value (pH7.0, 2 hr) was 60.2%. The Residual rate (pH7.0, 2 hr) was 0.0%, the “Production rate of Alvocidib” value (pH7.0, 3 hr) was 62.7% and the Residual rate (pH7.0, 3 hr) was 0.0%. The “Production rate of Alvocidib” value (pH7.4, 0 hr) was 3.9%, the Residual rate (pH7.4, 0 hr) was 77.3% and the “Conversion to Alvocidib at pH 7.4” value was “rapidly converted to Alvocidib”. The “Production rate of Alvocidib” value (pH7.4, 0.5 hr) was 51.0%, the Residual rate (pH7.4, 0.5 hr) was 10.8% and the “Production rate of Alvocidib” value (pH7.4, 1 hr) was 65.9%. The Residual rate (pH7.4, 1 hr) was 0.0%, the “Production rate of Alvocidib” value (pH7.4, 2 hr) was 67.3% and the Residual rate (pH7.4, 2 hr) was 0.0%. The “Production rate of Alvocidib” value (pH7.4, 3 hr) was 63.6% and the Residual rate (pH7.4, 3 hr) was 0.0%.
